Source: ChEMBL document CHEMBL1201862, “PubChem BioAssay data set” (2004)
“And” between values parts separate entries of the source, which are not always exact repeats. Equal entries are not always repeated. The source made the active and inactive calls.

How the values were obtained:
[1] = target: ELAV-like protein 1 (Homo sapiens, UniProt Q15717); experiment: Identify HuR specific inhibitors.; type: functional
[2] = Luminescent dose response cell-based high throughput screening assay for inhibitors of the Janus kinase 2 mutant JAK2V617F. [Related pubchem assays: 1446 (Primary screen.), 1521 (Confirmation assay.), 1486 (Counter screen.)]; type: functional
[3] = target: T1, Mannose-6-phosphate isomerase (Homo sapiens, UniProt P34949); experiment: human PMI inhibitors, high substrate, primary screen, biochemical, fluorescence intensity, high mannose 6-phosphate (AID 1220)
T1 sequence (P34949 whole entry): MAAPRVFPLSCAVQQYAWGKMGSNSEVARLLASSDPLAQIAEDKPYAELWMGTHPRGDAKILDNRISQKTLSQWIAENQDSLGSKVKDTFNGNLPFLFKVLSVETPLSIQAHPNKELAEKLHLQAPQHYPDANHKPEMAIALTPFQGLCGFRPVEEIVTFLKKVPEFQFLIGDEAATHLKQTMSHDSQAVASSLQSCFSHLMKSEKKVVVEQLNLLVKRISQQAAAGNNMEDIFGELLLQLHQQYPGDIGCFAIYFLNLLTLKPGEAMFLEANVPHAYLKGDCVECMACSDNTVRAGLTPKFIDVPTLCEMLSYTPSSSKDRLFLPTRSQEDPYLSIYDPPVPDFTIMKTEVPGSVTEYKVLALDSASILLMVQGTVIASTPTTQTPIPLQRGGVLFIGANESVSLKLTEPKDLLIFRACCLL

[4] = target: Nonstructural protein 1 (Influenza A virus, UniProt Q194T2); type: functional, Influenza A virus (A/California/07/2009(H1N1))
Sequence of Nonstructural protein 1 (Q194T2 whole entry): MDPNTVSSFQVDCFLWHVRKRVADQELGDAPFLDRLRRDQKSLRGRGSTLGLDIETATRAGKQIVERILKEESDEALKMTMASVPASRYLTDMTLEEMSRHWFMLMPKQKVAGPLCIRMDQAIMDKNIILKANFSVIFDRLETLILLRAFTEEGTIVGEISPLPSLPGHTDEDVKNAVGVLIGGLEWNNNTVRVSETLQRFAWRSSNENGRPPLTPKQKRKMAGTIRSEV

[5] = system: BJ; experiment: cytotoxicity toward BJ-TERT fibroblasts, dose response, cell-based, RAS-independent, luminescence (AID 1933); type: functional; conditions: Homo sapiens
[6] = system: BJ; experiment: cytotoxicity toward BJ-TERT-LT-ST fibroblasts, dose response, cell-based, RAS-independent, luminescence (AID 1935); type: functional; conditions: Homo sapiens;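 note: BJ fibroblasts immortalized with TERT plus LT and ST oncogenes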
[7] = cytotoxicity toward DRD oncogenic fibroblasts, dose response, cell-based, non-viral oncogenic, luminescence (AID 1934); type: functional; conditions: Homo sapiens
[8] = system: BJ; experiment: cells; type: functional, cell-based; conditions: Homo sapiens
[9] = system: BJ; experiment: cytotoxicity toward Ras-transformed BJeLR fibroblasts, dose response, cell-based, alamar blue fluorescence, cherrypicked samples (AID 2631); type: functional; conditions: Homo sapiens;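 note: confirmatory dose-response assay in RAS-dependent BJ fibroblasts engineered with TERT, LT and ST, with cytotoxicity read by fluorescence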
[10] = target: Heat shock protein HSP 90-alpha (Homo sapiens, UniProt P07900); experiment: Luminescence-based dose response biochemical high throughput screening assay for inhibitors of the Heat Shock Protein 90 (HSP90). [Related pubchem assays: 1831 (Summary AID.), 1846 (Confirmation screen.), 1789 (Primary screen.)]
[11] = target: T1, Mannose-6-phosphate isomerase; experiment: inhibitors of human PMI, primary screen, biochemical, fluorescence intensity, coupled assay (AID 1209)
[12] = system: Vero; experiment: Vero cell cytotoxicity, cytotoxicity control for flavivirus capping enzyme inhibitors (AID 588742); type: functional; conditions: Chlorocebus sabaeus
[13] = target: Epstein-Barr nuclear antigen 1 (Epstein-Barr virus (strain B95-8) (HHV-4) (Human herpesvirus 4), UniProt P03211); experiment: EBNA-1 inhibitors, dose response, biochemical, fluorescence polarization, 1536-well (AID 2381); parameters: species or system human gammaherpesvirus 4;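 note: fluorescence polarization of a Cy5 DNA probe bound by EBNA-1 protein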
Sequence of Epstein-Barr nuclear antigen 1 (P03211 whole entry): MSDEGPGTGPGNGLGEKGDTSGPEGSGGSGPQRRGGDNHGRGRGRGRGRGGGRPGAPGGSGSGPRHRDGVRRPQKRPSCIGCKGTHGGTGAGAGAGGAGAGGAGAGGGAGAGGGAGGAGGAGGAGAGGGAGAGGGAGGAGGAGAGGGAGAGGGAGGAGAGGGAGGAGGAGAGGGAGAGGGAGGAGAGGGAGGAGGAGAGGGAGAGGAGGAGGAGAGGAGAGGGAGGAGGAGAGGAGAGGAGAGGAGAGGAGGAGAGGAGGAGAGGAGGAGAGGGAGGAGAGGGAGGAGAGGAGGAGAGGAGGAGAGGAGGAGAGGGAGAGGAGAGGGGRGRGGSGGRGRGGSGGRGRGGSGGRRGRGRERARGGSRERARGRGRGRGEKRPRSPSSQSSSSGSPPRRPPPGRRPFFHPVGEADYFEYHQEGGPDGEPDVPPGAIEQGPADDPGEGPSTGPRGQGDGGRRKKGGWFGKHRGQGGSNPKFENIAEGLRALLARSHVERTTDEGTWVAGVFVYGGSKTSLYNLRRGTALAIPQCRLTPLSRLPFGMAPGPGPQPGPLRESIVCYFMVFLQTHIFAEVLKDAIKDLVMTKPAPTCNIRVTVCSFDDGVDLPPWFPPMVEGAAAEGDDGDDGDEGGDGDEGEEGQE

[14] = target: Lytic switch protein BZLF1 (Epstein-Barr virus (strain B95-8) (HHV-4) (Human herpesvirus 4), UniProt P03206); experiment: EBV ZTA inhibitors, dose response, counter-screen for EBNA-1 inhibitor project, biochemical, fluorescence polarization, Epstein-Barr virus, 1536-well (AID 2377); parameters: species or system human gammaherpesvirus 4;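 note: fluorescence polarization of Cy5-labelled ZRE DNA probe bound by purified Zta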
Sequence of Lytic switch protein BZLF1 (P03206 whole entry): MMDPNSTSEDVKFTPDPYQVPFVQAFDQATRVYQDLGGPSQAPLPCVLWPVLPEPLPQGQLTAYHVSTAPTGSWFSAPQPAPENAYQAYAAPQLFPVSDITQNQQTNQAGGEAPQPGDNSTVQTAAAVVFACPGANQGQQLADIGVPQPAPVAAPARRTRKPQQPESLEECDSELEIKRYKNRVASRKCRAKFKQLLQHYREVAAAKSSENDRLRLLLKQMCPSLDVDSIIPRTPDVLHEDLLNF

[15] = P. falciparum Dd2 growth inhibitors, dose response, SYBR Green, cherry-picked samples (AID 1159567); type: functional, cell-based
[16] = HepG2 cell cytotoxicity, dose response, cytotoxicity control, cherry-picked samples (AID 1159577); type: functional, cell-based
[17] = P. falciparum 3D7-ScDHODH growth inhibitors, dose response, SYBR Green, dry powder samples (AID 1159570); type: functional, cell-based;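 note: parasite growth measured after 72 hours of compound exposure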
[18] = P. falciparum Dd2 growth inhibitors, dose response, SYBR Green, dry powder samples (AID 1159566); type: functional, cell-based;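 note: potency for growth inhibition with lower SYBR green DNA signal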
[19] = Plasmodium falciparum Dd2 Sybr green parasite growth Measured in Cell-Based and Microorganism Combination System Using Plate Reader - 2153-01_Inhibitor_Dose_DryPowder_Activity_Set10.; type: functional
[20] = P. falciparum ATP4 D1247Y mutant growth inhibitors, dose response, NITD609-resistant line, SYBR Green, dry powder (AID 1159571); type: functional, cell-based;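 note: parasites synchronized at ring stage by sorbitol before testing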
[21] = target: fMet-Leu-Phe receptor (Homo sapiens, UniProt P21462); experiment: FPR ligands, dose response (AID 519); type: functional
Sequence of fMet-Leu-Phe receptor (P21462 whole entry): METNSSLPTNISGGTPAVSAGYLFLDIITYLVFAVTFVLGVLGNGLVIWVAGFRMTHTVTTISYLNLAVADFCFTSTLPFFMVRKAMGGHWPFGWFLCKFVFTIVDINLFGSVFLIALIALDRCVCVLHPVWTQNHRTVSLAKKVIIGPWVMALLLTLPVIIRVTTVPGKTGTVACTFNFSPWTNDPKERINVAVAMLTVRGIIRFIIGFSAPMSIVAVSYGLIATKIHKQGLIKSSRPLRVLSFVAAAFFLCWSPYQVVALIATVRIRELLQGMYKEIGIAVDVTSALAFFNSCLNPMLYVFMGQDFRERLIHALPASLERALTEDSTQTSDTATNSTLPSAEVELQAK

[22] = target: T2, Bcl-2-related protein A1 (Mus musculus, UniProt Q07440); experiment: Bfl-1 inhibitors, primary screen, biochemical, fluorescence polarization, FITC-Bid, mouse (AID 432)
T2 sequence (Q07440 whole entry): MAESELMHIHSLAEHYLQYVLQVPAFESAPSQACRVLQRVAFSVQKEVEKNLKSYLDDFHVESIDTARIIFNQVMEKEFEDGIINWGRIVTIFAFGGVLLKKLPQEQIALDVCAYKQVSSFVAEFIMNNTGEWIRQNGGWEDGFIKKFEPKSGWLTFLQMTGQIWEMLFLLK

[23] = target: T2, Bcl-2-related protein A1; experiment: Bfl-1 inhibitors blocking BH3 peptide binding, confirmation, biochemical, TR-FRET, mouse Bfl-1 (AID 621);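 note: TR-FRET binding of GST-Bfl-1 to FITC-labelled Bid peptide via terbium antibody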
[24] = target: T3, Short transient receptor potential channel 4 (Mus musculus, UniProt Q9QUQ5); experiment: mouse TRPC4 channel inhibitors, dose response, cell-based, HEK293 TRPC4/mu-opioid, Fluo-4 calcium (AID 434942); type: functional;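 note: potency of inhibitors blocking the TRPC4 calcium response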
T3 sequence (Q9QUQ5 whole entry): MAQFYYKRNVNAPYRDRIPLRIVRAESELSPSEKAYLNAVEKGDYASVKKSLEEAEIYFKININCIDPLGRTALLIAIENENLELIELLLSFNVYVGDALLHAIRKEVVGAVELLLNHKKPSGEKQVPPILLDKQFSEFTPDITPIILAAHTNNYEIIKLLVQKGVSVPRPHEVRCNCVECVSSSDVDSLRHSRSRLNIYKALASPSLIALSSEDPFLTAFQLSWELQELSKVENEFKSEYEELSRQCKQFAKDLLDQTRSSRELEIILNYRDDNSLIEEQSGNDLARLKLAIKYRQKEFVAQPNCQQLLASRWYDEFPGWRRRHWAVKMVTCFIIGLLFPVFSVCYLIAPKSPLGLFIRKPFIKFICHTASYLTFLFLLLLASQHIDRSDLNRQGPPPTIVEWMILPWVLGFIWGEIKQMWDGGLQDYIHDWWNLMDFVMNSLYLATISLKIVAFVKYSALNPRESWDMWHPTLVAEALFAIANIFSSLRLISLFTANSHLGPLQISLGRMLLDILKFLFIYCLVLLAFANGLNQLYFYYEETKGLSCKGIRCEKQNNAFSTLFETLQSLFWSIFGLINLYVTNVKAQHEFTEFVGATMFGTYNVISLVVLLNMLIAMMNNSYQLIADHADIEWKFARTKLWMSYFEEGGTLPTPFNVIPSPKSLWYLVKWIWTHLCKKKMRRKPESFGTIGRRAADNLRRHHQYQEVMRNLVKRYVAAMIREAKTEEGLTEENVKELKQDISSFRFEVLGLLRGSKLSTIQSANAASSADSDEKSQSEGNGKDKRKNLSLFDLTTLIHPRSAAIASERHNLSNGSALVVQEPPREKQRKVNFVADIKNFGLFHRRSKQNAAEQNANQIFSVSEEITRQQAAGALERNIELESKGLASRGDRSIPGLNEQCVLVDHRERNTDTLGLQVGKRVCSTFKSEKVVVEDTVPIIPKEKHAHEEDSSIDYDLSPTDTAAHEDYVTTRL

[25] = target: Voltage-gated inwardly rectifying potassium channel KCNH2 (Homo sapiens, UniProt Q12809); experiment: hERG protection from proarrhythmic block, potency, dose response, cell-based, thallium flux (AID 2121); type: ADME
Sequence of Voltage-gated inwardly rectifying potassium channel KCNH2 (Q12809 whole entry): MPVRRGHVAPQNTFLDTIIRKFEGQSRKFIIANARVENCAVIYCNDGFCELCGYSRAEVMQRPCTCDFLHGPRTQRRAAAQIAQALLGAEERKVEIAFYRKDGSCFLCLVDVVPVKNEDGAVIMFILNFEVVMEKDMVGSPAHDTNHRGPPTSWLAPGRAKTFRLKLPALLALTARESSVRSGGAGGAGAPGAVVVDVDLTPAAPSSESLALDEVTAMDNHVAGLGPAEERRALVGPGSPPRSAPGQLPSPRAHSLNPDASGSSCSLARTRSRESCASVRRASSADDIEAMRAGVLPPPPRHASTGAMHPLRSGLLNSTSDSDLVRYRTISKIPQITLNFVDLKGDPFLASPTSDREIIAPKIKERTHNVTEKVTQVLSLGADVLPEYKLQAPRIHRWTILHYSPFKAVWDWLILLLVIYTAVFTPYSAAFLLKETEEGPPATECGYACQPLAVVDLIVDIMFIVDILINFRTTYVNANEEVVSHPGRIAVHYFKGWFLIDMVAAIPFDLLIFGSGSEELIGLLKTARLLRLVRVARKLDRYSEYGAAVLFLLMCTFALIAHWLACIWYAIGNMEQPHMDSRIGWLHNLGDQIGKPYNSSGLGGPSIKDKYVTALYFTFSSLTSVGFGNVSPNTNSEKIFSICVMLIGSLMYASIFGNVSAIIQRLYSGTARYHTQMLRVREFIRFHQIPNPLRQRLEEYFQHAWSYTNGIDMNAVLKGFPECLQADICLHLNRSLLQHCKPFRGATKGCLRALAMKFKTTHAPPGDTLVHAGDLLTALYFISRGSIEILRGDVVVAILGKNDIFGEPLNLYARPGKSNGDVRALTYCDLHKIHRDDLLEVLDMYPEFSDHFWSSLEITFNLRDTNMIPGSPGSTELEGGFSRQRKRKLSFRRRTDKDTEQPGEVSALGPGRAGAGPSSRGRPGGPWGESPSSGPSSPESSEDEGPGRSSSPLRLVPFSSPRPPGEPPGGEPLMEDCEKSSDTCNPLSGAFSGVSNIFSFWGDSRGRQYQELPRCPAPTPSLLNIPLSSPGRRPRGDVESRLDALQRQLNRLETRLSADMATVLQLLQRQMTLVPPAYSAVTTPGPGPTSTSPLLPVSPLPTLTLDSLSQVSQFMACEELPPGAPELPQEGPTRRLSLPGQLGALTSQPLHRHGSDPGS

Sequence of ELAV-like protein 1 (Q15717 whole entry): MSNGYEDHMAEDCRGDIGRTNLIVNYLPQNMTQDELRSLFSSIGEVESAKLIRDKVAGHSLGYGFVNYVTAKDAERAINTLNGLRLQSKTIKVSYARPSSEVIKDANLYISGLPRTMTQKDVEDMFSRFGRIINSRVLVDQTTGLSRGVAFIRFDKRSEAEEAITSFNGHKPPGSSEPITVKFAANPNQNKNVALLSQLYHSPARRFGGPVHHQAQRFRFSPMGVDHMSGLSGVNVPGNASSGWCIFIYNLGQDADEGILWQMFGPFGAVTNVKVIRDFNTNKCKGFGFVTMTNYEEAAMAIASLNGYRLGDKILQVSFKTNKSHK

With `CC1=CC(C)(C)N=C(S)N1c1cccc2cc(S(=O)(=O)O)ccc12` the IC50 [1] was 14.7 µM (inactive).
For `Cc1ccc(Nc2nc(N)nc(CCl)n2)cc1`, the IC50 [2] was 1.75 µM (active).
With `COc1ccc(Nc2c([N+](=O)[O-])ccc3c2=NC2(CCCCC2)N=3)cc1` the IC50 [3] was > 50 µM (not active) and the IC50 [4] was 11.1 µM (active).
For `CNC(=S)N/N=C/c1ccc(-c2ccc(C(=O)O)cc2)o1`, the EC50 [5] was 4.2 µM (active), the EC50 [6] was 17 µM (active) and the EC50 [7] was 5.6 µM (active). For the same compound, the EC50 [8] was 5.08 µM (active), the EC50 [9] was > 133 µM (inactive) and the IC50 [10] was 8.05 µM (active).
For `CC(=O)Oc1ccc2c(=O)c(Oc3ccccc3)c(C)oc2c1OC(C)=O`, the IC50 [11] was 44.8 µM (active) and the CC50 [12] was 38.1 µM (active).
For `COc1cccc(OC)c1C(=O)Nc1nc2cc3c(cc2s1)OCO3`, the IC50 [13] was 15.5 µM (not active) and the IC50 [14] was > 111 µM (not active).
In the case of `COc1ccc(-c2ccccc2[C@H]2[C@@H](C#N)N(C(=O)C3CCCC3)[C@@H]2CO)cc1`, the AC50 [15] is reported as 1.34 µM (active), the AC50 [16] is reported as > 42 µM (inactive) and the AC50 [17] is reported as 690 nM (active). The AC50 [18] was 717 nM (active), the AC50 [19] was 867 nM (active) and the AC50 [20] was 2.54 µM (active).
With `O=C(C1=C(O)C(=O)N(c2ncccn2)C1c1cccc(Cl)c1)c1ccco1` (stereo not given) the Ki [21] was > 66.7 µM (inactive), the IC50 [22] was > 100 µM (not active) and the IC50 [23] was > 100 µM (not active).
In the case of `O=C(O)c1ccc(Cl)cc1Nc1nc2cc(Cl)ccc2o1`, the EC50 [24] is reported as 5.31 µM (active) and the EC50 [25] is reported as 11.3 µM (active) and 12 µM (active).
